In PMC7092418 (Genes and Environment, 2020):

How the values were obtained:
[1] = test system: S. typhimurium YG9028; details: Salmonella typhimurium
[2] = test system: rat; details: in vivo; cited from earlier work

SMILES: COS(C)(=O)=O [MMS, Methylmethane sulfonate]
- Specific mutagenicity [1]: 0.205 revertants/plate/nmole

SMILES: [N-]=[N+]=[N-].[Na+] [sodium azide]
- Carcinogenicity [2]: non-carcinogenic
